US20050267025A1, “Compositions and methods for treatment of infectious and inflammatory diseases” (priority 2002, published 2005)

Tested on: human monocytes
Assay type: cell-based

polymyxin B [reference compound]
effect on IL-10 promotion when added to yeast rCFP32 or CF from WT and mutant Mtb: no effect
